Results reported in patent US8076348B2, “Acylguanidine derivative or salt thereof” (Astellas Pharma Inc., priority 2005, dated 2011).
pKi: −log10 of the molar value. One block for each molecule: values may come before it.

Legend:
Hartley male guinea pigs = assay: Preventive effect in guinea pig migraine model (5-HT-induced dura mater protein leakage); format: in vivo; conditions: for minimum amount showing the maximum drug efficacy / dose at which the leaked protein quantity-reducing action was shown / lowering of leaked protein quantity to the standard value when the dose was increased: intravenous; for dose at which the leaked protein quantity-reducing action was shown: 5-HT-induced leakage; for lowering of leaked protein quantity to the standard value when the dose was increased: RS-127445 3 to 10 mg/kg, SB-269970 10 to 30 mg/kg
Experimental: Test Method (5) Preventive Effect in Guinea Pig Migraine Model
This test system evaluates the migraine-preventive effect by measuring the amount of this leaked protein in the presence of a compound to be tested and was carried out by partially modifying the method described by Rachel A. Spokes and Vicki C. Middlefell in “European Journal of Pharmacology”, (Holland), 1995, vol. 281, p. 75-79.
Hartley male guinea pigs (250 to 350 g) were anesthetized by the intraperitoneal administration (i.p.) of urethane (1.5 g/kg). By applying a simple canulation to a latent vein, 50 mg/kg of a fluorescent protein (FITC-BSA) was intravenously administered (i.v.) and, 5 minutes thereafter, physiological saline or 1 μmol/ml/kg of 5-HT was intravenously administered. Perfusion was carried out with physiological saline 15 minutes thereafter and blood was washed out. […] By detaching the skull, the dura mater was extracted and incubated in an Eppendorf tube at 37° C. for 16 hours in the presence of physiological saline adjusted to pH 11. By carrying out a centrifugal operation, the supernatant was dispensed into a plate. The fluorescence intensity was measured using a fluorescence plate reader (excitation wavelength 485 nm, […] 530 nm). By weighing the dura mater weight, the fluorescence intensity per mg dura mater protein was calculated.
The values of fluorescence intensity measured at the time of the administration and non-administration of each compound are shown in FIG. 4 to FIG. 7.

male Wistar rats = assay: Inhibitory effect for defecation at the time of confined stress loading (rat confined stress defecation model); format: in vivo; conditions: for action to suppress defecation (number of feces): 10 mg/kg p.o., compound used independently, feces counted 1 hour after stress loading, 10 mg/kg; for number of feces, significant difference in comparison with the non-administration group: rat, 1, 3 and 10 mg/kg administration groups, N=10
Experimental: Test Method (4) Inhibitory Effect for Defecation at the Time of Confined Stress Loading
The IBS-treating effect of the compound (I) of the present invention was evaluated using a method in which a confined stress is applied to rats and the evacuation quantity is measured (cf. “The Journal of Pharmacology Experimental Therapeutics”, (USA), 1992, vol. 261, p. 297-303).
An agent to be tested was administered to male Wistar rats (body weight 250 to 320 g, 10 animals for each group) and a confined stress was applied thereto 30 minutes thereafter. A confining cage (trade name: KN-468, 265 mm in width×95 mm in length×200 mm in height, Natsume Seisakusho, Tokyo) was used in the confined stress loading, and the number of feces during 1 hour after the stress loading was counted.

5-HT2B receptor [1] = molecular target: T1, 5-HT2B receptor (Homo sapiens, UniProt P41595); conditions: literature value; cited from earlier work
5-HT2B receptor [2] = molecular target: T1, 5-HT2B receptor; assay: 5-HT2B receptor binding test; set-up: expressed in transfected cells; host or cells: HEK293-EBNA cells (membrane sample); conditions: [3H] Mesulergine, human 5-HT2B receptor expressing HEK293-EBNA cell membrane
Experimental: Test Method (1) 5-HT2B Receptor Binding Test
(i) Membrane Sample Preparation
(§1) Cultured human 5-HT2B receptor-expressing HEK293-EBNA cells were washed with a phosphate buffer (PBS)(−). The cells were peeled off using a scraper in the presence of PBS(−), and the cells were recovered by a centrifugal treatment (1,000 rpm, 10 min, 4° C.). In the presence of 5 mM tris-hydrochloric acid (Tris-HCl) (pH 7.4) buffer, these were homogenized using a homogenizer (registered trademark: Polytron (PTA 10-TS)) and subjected to a centrifugal treatment (40,000×g, 10 min, 4° C.). In the presence of 50 mM Tris-HCl (pH 7.4) buffer, these were suspended using a glass-Teflon (registered trademark) homogenizer. By carrying out a centrifugal treatment (40,000×g, 10 min, 4° C.), these were suspended in 50 mM Tris-HCl (pH 7.4) and stored at −80° C.
(§2) (ii) Receptor Binding Test
(§3) A total volume of 500 μl containing 50 mM Tris-HCl, 4-mM-CaCl2 (pH 7.4) buffer, the human 5-HT2B receptor expressing HEK293-EBNA cell membrane sample and a radio ligand [^3H] Mesulergine (3.1 TBq/mmol); was incubated at 25° C. for 1 hour. The compound was dissolved in 100% DMSO and diluted to respective concentrations. Nonspecific binding was regarded as the binding quantity in the presence of 1 μM ritanserin, and a result of subtracting the nonspecific binding quantity from the total binding quantity was regarded as the specific binding quantity. By adding 4 ml of 50 mM Tris-HCl buffer (pH 7.4), filtered under a reduced pressure trough a GF/B glass filter, and the filter was washed with the same buffer (4 ml×3). The glass filter was soaked in 5 ml of a liquid scintillator (trade name: Aquasol-2), and the radioactivity quantity was measured using a liquid scintillation counter.

human 5-HT7 receptor = molecular target: T2, human 5-HT7 receptor (Homo sapiens, UniProt P34969); assay: 5-HT7 receptor binding test; conditions: [3H] 5-HT, human 5-HT7 receptor expressing CHO cell membrane
T2 construct: expressed in transfected cells; host or cells: CHO cells (membrane sample)
Experimental: Test Method (2) 5-HT7 Receptor Binding Test (i) Membrane Sample Preparation
as §1, with “5-HT7 receptor expressing CHO” for “5-HT2B receptor-expressing HEK293-EBNA”, “PBS(−).” for “with a phosphate buffer (PBS)(−).”, “Tris-HCl” for “tris-hydrochloric acid (Tris-HCl)”
as §2
as §3, with “Tris-HCl, 4 mM CaCl2” for “Tris-HCl, 4-mM-CaCl2”, “human 5-HT7” for “human 5-HT2B”, “expressing CHO” for “expressing HEK293-EBNA”, “[^3H] 5-HT (3.40 TBq/mmol)” for “[^3H] Mesulergine (3.1 TBq/mmol);”, “of 10” for “of 1”, “μM metergoline,” for “μM ritanserin,”

T2 sequence (P34969 whole entry): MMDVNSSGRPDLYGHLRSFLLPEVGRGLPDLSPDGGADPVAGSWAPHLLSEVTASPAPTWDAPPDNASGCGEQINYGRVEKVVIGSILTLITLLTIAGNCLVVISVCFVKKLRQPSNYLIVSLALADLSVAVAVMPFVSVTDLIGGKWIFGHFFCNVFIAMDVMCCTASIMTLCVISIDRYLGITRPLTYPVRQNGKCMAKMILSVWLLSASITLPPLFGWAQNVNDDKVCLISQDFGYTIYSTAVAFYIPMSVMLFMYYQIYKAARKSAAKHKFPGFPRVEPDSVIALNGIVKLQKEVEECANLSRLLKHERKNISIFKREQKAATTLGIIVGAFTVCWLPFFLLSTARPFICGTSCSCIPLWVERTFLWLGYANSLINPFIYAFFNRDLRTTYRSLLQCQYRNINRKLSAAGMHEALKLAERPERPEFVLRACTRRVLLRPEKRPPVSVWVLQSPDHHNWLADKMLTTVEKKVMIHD
T1 sequence (P41595 whole entry): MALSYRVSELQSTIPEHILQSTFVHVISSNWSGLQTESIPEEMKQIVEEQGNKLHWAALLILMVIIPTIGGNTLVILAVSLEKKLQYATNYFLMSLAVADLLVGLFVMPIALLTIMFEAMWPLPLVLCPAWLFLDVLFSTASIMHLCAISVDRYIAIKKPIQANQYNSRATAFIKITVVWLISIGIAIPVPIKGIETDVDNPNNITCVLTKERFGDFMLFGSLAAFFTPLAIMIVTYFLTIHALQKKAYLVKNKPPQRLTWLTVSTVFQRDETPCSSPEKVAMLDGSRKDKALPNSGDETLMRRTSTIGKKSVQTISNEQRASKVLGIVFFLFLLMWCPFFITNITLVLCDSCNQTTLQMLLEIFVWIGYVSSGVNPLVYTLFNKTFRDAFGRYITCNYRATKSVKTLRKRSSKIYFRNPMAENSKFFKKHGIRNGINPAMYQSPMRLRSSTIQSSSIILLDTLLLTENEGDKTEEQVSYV

Compound: CC(C)c1cc(-c2ccc(F)c3ccccc23)nc(N)n1 [RS-127445, 2-amino-4-(4-fluoronaphth-1-yl)-6-isopropylpyrimidine]
minimum amount showing the maximum drug efficacy (Hartley male guinea pigs): 3 mg/kg
dose at which the leaked protein quantity-reducing action was shown (Hartley male guinea pigs): 3 mg/kg
lowering of leaked protein quantity to the standard value when the dose was increased (Hartley male guinea pigs): did not lower it to the standard value
action to suppress defecation (number of feces) (male Wistar rats; rat): did not show the action to suppress defecation
number of feces, significant difference in comparison with the non-administration group (male Wistar rats): Significant difference was not found
5-HT2B receptor-selective against 5-HT1A, 5-HT1B, 5-HT2A, 5-HT2C, 5-HT3, 5-HT6, 5-HT7, α1, M1, D2 and the like receptors (5-HT2B receptor [1]): ≥ 1000 times

pKi (5-HT2B receptor [2]): 8.82
pKi (human 5-HT7 receptor): 9.00
Compound: COC1(C)c2cc(C(=O)N=C(N)N)ccc2-c2sccc21 (centres unmarked) [Example 83]

pKi (5-HT2B receptor [2]): 9.59
pKi (human 5-HT7 receptor): 8.59
Compound: CC(C)N1c2ccccc2Oc2ccc(C(=O)N=C(N)N)cc21 [Example 66, N-(diaminomethylene)-10-isopropyl-10H-phenoxazine-2-carboxamide]

pKi (5-HT2B receptor [2]): 8.89
pKi (human 5-HT7 receptor): 8.60
Compound: NC(N)=NC(=O)c1ccc2c(c1)C1(CCCO1)c1ccsc1-2 (centres unmarked) [Example 84, N-(diaminomethylene)-4,5-dihydro-3H-spiro[furan-2,4′-indeno[1,2-b]thiophene]-6′-carboxamide]
ED50 (male Wistar rats; po, rat, p.o., read-out: ED50 (50% effective dose), suppressing action on defecation): 0.72 mg/kg

Compound: CC1CCN(CC[C@H]2CCCN2S(=O)(=O)c2cccc(O)c2)CC1 [SB-269970, (R)-3-(2-(2-(4-methylpiperidine-1-yl)ethyl)pyrrolidine-1-sulfonyl)phenol]
minimum amount showing the maximum drug efficacy (Hartley male guinea pigs): 10 mg/kg
dose at which the leaked protein quantity-reducing action was shown (Hartley male guinea pigs): 10 mg/kg
lowering of leaked protein quantity to the standard value when the dose was increased (Hartley male guinea pigs): did not lower the leaked protein quantity to the standard value
action to suppress defecation (number of feces) (male Wistar rats; rat): did not show the action to suppress defecation
number of feces, significant difference in comparison with the non-administration group (male Wistar rats): Significant difference was not found

pKi (5-HT2B receptor [2]): 9.08
pKi (human 5-HT7 receptor): 9.11
Compound: NC(N)=NC(=O)c1ccc2c(c1)C1(SCCS1)c1ccsc1-2 [Example 81, N-(diaminomethylene)spiro[1,3-dithiolan-2,4′-indeno[1,2-b]thiophene]-6′-carboxamide]

pKi (5-HT2B receptor [2]): 8.34
pKi (human 5-HT7 receptor): 9.19
Compound: CC(C)n1c2ccccc2c2ccc(C(=O)N=C(N)N)cc21 [Example 1, N-(diaminomethylene)-9-isopropyl-9H-carbazole-2-carboxamide]
leaked protein quantity (Hartley male guinea pigs; 30 mg/kg oral administration): almost completely suppressed the leaked protein quantity
